From US8993309B2, “Predictive marker for topoisomerase I inhibitors” (Boston Medical Center Corporation, priority 2008, dated 2015)

Assays:
topoI [1] = target: T1, topoI (Mus musculus, UniProt Q04750); assay: topoI down-regulation in response to CPT in DNA-PK deficient and efficient cells (anti-topoI immunoblot); assay type: cell-based
T1 construct: endogenous in cells; host or cells: ScH8 (DNA-PK +/+) and ScSv3 (DNA-PK -/-) mouse embryo fibroblasts
T1 sequence (Q04750 1-767): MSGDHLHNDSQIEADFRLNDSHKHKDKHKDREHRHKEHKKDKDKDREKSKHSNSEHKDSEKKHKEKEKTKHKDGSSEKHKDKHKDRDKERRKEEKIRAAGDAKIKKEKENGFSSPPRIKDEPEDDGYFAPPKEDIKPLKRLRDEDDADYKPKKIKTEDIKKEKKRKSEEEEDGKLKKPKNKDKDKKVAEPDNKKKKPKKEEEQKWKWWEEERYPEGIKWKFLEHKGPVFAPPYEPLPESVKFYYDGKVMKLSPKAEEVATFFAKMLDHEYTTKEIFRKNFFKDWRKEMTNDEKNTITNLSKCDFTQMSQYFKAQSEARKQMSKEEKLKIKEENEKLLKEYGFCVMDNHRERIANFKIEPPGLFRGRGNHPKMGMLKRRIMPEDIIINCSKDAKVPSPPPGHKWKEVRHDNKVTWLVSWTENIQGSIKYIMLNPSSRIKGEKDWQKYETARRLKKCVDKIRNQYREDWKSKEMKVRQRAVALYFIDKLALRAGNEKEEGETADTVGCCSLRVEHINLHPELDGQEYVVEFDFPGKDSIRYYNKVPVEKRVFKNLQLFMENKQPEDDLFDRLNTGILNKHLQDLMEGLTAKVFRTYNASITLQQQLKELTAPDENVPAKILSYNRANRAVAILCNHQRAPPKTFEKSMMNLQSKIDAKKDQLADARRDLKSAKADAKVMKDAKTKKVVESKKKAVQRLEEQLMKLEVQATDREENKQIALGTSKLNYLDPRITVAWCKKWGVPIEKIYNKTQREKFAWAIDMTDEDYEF
Procedure: (§1) Protein levels in FIG. 8A were determined by immuno blot analysis of cell lysate with anti-βactin.
(§2) Tissue Culture: Human cervical carcinoma (HeLa) cells, MCF-7 breast cancer cells, BT-474 breast cancer cells and Mouse embryo fibroblasts (MEF) reconstituted for stable expression of DNA-PK (ScH8) and […] MEF (ScSv3, DNA-PK −/−) were grown and maintained in Dulbecco's Modification of Eagle's Medium containing 10% fetal bovine serum, 2 mM L-Glutamine 100 units/mL of Streptomycin and 100 units/mL of Penicillin.
Cell Synchronization and Drug Treatment. MEF cells were phase-synchronized by serum starvation. Cells were incubated for 30 hours in Dulbecco's Modification of Eagle Medium containing 0.1% fetal bovine serum followed by 16 hour incubation in Medium containing 10% fetal bovine serum. Topo I inhibitor treatment was performed using a 25 μM concentration of Irinotecan (Sigma). Transient transfection of cell lines for BRCA1 and BARD1 expression was performed using the Geneporter 2 transfection kit (GenLantis).
Immunoprecipitation and immunoblot analysis: Cell lysates were prepared for immunoprecipitation and soluble proteins were incubated with anti-BRCA1 or anti-topoI (Topogen, Inc.). The immunoprecipitates were subjected to immunoblotting with anti-BRCA1 or anti-topoI. Antigen-antibody complexes were visualized by enhanced chemiluminescence (ECL detection system, GE, Piscataway, N.J.).

[2] = test system: biosynthesis of nucleic acids; details: cited from earlier work
GFP-topoI and BRCA1 = assay: co-immunostaining of GFP-topoI and BRCA1 after CPT treatment; assay type: cell-based; details: in response to treatment with CPT
DNA-PK -/- cells = assay: cell death of DNA-PK -/- and DNA-PK +/+ cells in response to CPT; assay type: cell-based, Mouse; details: DNA-PK -/- cells compared to DNA-PK +/+ cells, in response to CPT (FIG. 8C)
Procedure: as §1, §2

topoI [3] = target: T2, topoI (Homo sapiens, UniProt P11387); assay: topoI down-regulation in BRCA1-silenced cells; assay type: cell-based; details: BRCA1-silenced Hela cells
T2 construct: endogenous in cells
T2 sequence (P11387 1-765): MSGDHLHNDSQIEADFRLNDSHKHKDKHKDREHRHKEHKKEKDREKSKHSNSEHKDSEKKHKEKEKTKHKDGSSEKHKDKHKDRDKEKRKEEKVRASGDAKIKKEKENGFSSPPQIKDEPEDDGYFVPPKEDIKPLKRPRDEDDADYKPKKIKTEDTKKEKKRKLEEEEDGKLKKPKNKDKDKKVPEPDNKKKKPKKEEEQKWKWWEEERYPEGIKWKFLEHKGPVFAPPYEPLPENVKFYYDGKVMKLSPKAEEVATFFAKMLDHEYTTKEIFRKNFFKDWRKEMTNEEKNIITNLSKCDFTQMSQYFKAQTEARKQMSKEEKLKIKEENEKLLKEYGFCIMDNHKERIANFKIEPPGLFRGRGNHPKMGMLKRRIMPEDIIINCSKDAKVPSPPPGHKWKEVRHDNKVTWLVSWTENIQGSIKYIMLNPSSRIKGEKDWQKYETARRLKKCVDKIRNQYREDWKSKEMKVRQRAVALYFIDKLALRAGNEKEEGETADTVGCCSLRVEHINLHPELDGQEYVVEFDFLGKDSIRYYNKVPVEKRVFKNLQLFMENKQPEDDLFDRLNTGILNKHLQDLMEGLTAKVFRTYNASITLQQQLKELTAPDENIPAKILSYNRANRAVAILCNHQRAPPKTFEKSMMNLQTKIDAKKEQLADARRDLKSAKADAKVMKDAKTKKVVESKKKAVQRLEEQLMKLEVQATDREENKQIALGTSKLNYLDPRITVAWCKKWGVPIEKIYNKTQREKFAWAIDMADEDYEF

leukemia L-1210 = details: experimentally transplanted leukemia L-1210 in mice; cited from earlier work
Walker 256 tumor = details: experimentally transplanted Walker 256 tumor in rats; cited from earlier work
DNA-PK = target: T3, DNA-PK (Homo sapiens, UniProt P78527); assay: CPT induced topoI downregulation in HeLa cells with or without DNA-PK inhibitor (anti-topoI immunoblot); assay type: cell-based; details: CPT treatment plus DNA-PK inhibitor (FIG. 9)
T3 construct: endogenous in cells; host or cells: HeLa
Procedure: Protein levels were determined by immuno blot analysis of cell lysate with anti-β actin.

HIV-1 = details: acute and chronic infections, in vitro; cited from earlier work

In the case of CC[C@@]1(O)C(=O)OCc2c1cc1n(c2=O)Cc2cc3ccccc3nc2-1 [CPT, camptothecin], the “rate of topoI down-regulation in response to CPT” value (topoI [1]; DNA-PK +/+ cells compared with DNA-PK deficient cells) was “significantly higher rate of topoI down-regulation in DNA-PK +/+ cells”, the “degradation of topoI” value (topoI [1]; ScH8 cells (DNA-PK +/+) treated with CPT, six hours) was “complete degradation” and the topoI remained intact (topoI [1]; ScSV3 cells (DNA-PK -/-) treated with CPT, six hours) was “more than 50%”. For the same compound, the “inhibitory activity toward the biosynthesis of nucleic acids” value [2] was “strong inhibitory activity”, the “localization of GFP-topoI and BRCA1” value (GFP-topoI and BRCA1) was “colocalized in DNA repair foci” and the “percentage of cell death” value (DNA-PK -/- cells) was “higher percentage of cell death”. The “rate of topoI down-regulation” value (topoI [3]) was “decrease in the rate of topoI down-regulation”, the anti-tumor activity (leukemia L-1210) was “potent anti-tumor activity” and the anti-tumor activity (Walker 256 tumor) was “potent anti-tumor activity”.

In the case of O=c1cc(N2CCOCC2)oc2c1ccc1ccccc12 [NU7026], the “effect on CPT induced topoI downregulation by UPP” value (DNA-PK) was “obliterates CTP induced topoI downregulation”.

In the case of CC[C@@]1(O)C(=O)OCc2c1cc1n(c2=O)Cc2cc3c(CN(C)C)c(O)ccc3nc2-1 [Topotecan], the “inhibition of HIV-1 infections” value (HIV-1) is given as “inhibit both acute and chronic HIV-1 infections”.
